Here are results for eleven compounds from patent US20260116920A1, “HUMAN TRANSFERRIN RECEPTOR BINDING PEPTIDE” (PEPTIDREAM INC., priority 2021, published 2026).

pKd: −log10 of the molar value. Positions of bridges follow the written chain, without caps; N, C: chain ends. Non-standard residues stand in square brackets, D forms with d. Residues, ends and D or L forms follow the SMILES beside them. *: point of attachment. Trp(1-CH2COOH) = N[C@@H](Cc1cn(CC(=O)O)c2ccccc12)C(=O)O; Phe(3-COOH) = N[C@@H](Cc1cccc(C(=O)O)c1)C(=O)O; NH(CH2CH2O)8Me = COCCOCCOCCOCCOCCOCCOCCOCCN*; NMePhe(3-Cl) = CN[C@@H](Cc1cccc(Cl)c1)C(=O)O; 3Pal(6-NH2) = Nc1ccc(C[C@H](N)C(=O)O)cn1; NMeY = CN[C@@H](Cc1ccc(O)cc1)C(=O)O; 3Pal = N[C@@H](Cc1cccnc1)C(=O)O; PEG4 = NCCOCCOCCOCCOCCC(=O)O; Carboxymethyl = O=C(O)C*

T1 sequence (P02786 89-760 limits assumed): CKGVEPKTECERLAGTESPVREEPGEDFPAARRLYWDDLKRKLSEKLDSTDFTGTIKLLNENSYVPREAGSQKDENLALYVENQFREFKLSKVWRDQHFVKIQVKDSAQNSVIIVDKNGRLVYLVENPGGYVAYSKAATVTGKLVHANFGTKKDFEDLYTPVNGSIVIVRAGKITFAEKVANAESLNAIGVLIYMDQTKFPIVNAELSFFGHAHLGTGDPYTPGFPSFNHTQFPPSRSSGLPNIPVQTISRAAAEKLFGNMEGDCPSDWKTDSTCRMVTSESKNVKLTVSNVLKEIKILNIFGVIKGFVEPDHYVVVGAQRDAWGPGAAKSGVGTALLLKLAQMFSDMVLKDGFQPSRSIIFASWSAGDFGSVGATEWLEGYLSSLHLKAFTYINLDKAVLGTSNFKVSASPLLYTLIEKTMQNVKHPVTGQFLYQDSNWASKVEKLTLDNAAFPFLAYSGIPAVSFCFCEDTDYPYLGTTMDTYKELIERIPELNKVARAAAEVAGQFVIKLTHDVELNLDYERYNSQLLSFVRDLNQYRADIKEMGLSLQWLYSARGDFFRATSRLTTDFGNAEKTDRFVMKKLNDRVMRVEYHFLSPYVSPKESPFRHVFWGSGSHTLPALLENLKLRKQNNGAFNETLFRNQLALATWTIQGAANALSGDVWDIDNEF

The assay has as its target T1, human transferrin receptor (hTfR) (Homo sapiens, UniProt P02786).
T1 construct: made in house
As to the kind of experiment: Evaluation of molecular interaction between transferrin receptor (hTfR) and peptide using surface plasmon resonance (SPR). Type of assay: binding. To be noted: KD class for binding to hTfR by SPR; peptide with the linker shown in the same line; 'low signal indicates no activity'; read-out: SPR. The protocol: Evaluation Test of Molecular Interaction Between Transferrin Receptor (hTfR) and Peptide Using Surface Plasmon Resonance (SPR)
The intermolecular interactions of various synthesized peptides with the transferrin receptor (hTfR) by surface plasmon resonance (SPR) of the peptides were tested by the methods described below. Specific test methods are shown below.
NTA sensor chip (Global Life Sciences Technologies Japan K.K.) was inserted into BiacoreT200 (Global Life Sciences Technologies Japan K.K.), then the priming operation was performed three times by using running buffer containing: 10 mM HEPES pH 8.0 (Nacalai Tesque, Inc.), 150 mM NaCl (Nacalai Tesque, Inc.), 0.05% Tween 20 (Nacalai Tesque, Inc.), 0.1% BSA (SIGMA-ALDRICH) and 1.0% DMSO (FUJIFILM Wako Pure Chemical Corporation), and equilibrated at a flow rate of 30 μL/min. 350 mM EDTA solution was reacted at a flow rate of 10 μL/min for 60 seconds, 0.5 mM […] solution (Kishida Chemical Co., Ltd.) was reacted at a flow rate of 10 μL/min for 60 seconds, and then the NTA sensor chip was washed with 3 mM EDTA solution (Nacalai Tesque, Inc.) at a flow rate of 10 μL/min for 60 seconds. After mixing 50 μL each of 60 mM EDC solution (Global Life Science Technologies Japan K.K.) and 650 mM NHS solution (Global Life Science Technologies Japan K.K.), the reaction was carried out at a flow rate of 10 μL/min for 420 seconds. 150 μL of 0.5 μM hTfR dimer solution was prepared by dilution with running buffer and reacted at a flow rate of 10 μL/min for 300 seconds to immobilize hTfR on the NTA sensor chip. For the human transferrin receptor (hTfR), recombinant hTfR described in Example 2 of WO2018/124121 was used. After immobilization, capping was performed by reacting with 1.0 M ethanolamine solution (Global Life Sciences Technologies Japan K.K.) at a flow rate of 10 μL/min for 420 seconds. Peptide lysate prepared in DMSO solution to 10 mM was diluted with running buffer to be a final concentration of 10 μM peptide lysate, then peptide solutions of 100 nM, 50 nM, 25 nM, 10 nM, and 5 nM were prepared. Using the above samples, the kinetics of the peptide against hTfR was obtained by SPR measurement.
The kinetic evaluation model was single-cycle kinetics, and curve fitting was performed using Biacore T200 Evaluation Software Version 3.0 (Global Life Science Technologies Japan K.K.). The binding of the peptide to hTfR was evaluated by performing curve fitting on the obtained sensorgram by least squares method and obtaining the KD value.
In general terms: SPR reads the build-up and loss of mass on a sensor chip optically.
On to `CC[C@H](C)[C@@H]1NC(=O)[C@H](Cc2ccc(OC)cc2)NC(=O)[C@H](Cc2ccc(N)nc2)NC(=O)[C@H](CC(N)=O)NC(=O)[C@H](Cc2cn(CC(=O)O)c3ccccc23)NC(=O)[C@H](C(C)C)NC(=O)[C@H](Cc2cccc(Cl)c2)N(C)C(=O)[C@H](C(C)C)NC(=O)[C@H](C)NC(=O)CSC[C@@H](C(=O)NCCOCCOCCOCCOCCC(N)=O)NC(=O)[C@H](Cc2ccc(O)cc2)N(C)C(=O)[C@H](Cc2ccccc2)NC(=O)[C@H](CCCNC(=N)N)NC(=O)[C@H](CCCNC(=N)N)NC(=O)[C@H]([C@@H](C)CC)NC1=O` [894_0332] ({CH2CO}-AV[NMePhe(3-Cl)]V[Trp(1-CH2COOH)]N[3Pal(6-NH2)]Y(Me)IIRRF[NMeY]C[PEG4]-NH2; thioether N-15), for which the pKd is 7.00 to 9.00. Under `CC[C@H](C)[C@@H]1NC(=O)[C@H](Cc2cccnc2)NC(=O)[C@H](Cc2ccc(O)cc2)NC(=O)[C@H](CC(N)=O)NC(=O)[C@H](Cc2cn(CC(=O)O)c3ccccc23)NC(=O)[C@H](C(C)C)NC(=O)[C@H](Cc2cccc(Cl)c2)N(C)C(=O)[C@H](C(C)C)NC(=O)[C@H](C)NC(=O)CSC[C@@H](C(=O)NCCOCCOCCOCCOCCC(N)=O)NC(=O)[C@H](Cc2ccc(O)cc2)N(C)C(=O)[C@H](Cc2ccccc2)NC(=O)[C@H](CCCNC(=N)N)NC(=O)[C@H](CCCNC(=N)N)NC(=O)[C@H]([C@@H](C)CC)NC1=O` [894_0333] ({CH2CO}-AV[NMePhe(3-Cl)]V[Trp(1-CH2COOH)]NY[3Pal]IIRRF[NMeY]C[PEG4]-NH2; thioether N-15) stands 7.00 to 9.00; under `CC[C@H](C)[C@@H]1NC(=O)[C@H](Cc2ccc(OC)cc2)NC(=O)[C@H](Cc2ccc(O)cc2)NC(=O)[C@H](CC(N)=O)NC(=O)[C@H](Cc2cn(CC(=O)O)c3ccccc23)NC(=O)[C@H](C(C)C)NC(=O)[C@H](Cc2cccc(Cl)c2)N(C)C(=O)[C@H](C(C)C)NC(=O)[C@H](C)NC(=O)CSC[C@@H](C(=O)NCCOCCOCCOCCOCCC(N)=O)NC(=O)[C@H](Cc2ccc(O)cc2)N(C)C(=O)[C@H](Cc2ccncc2)NC(=O)[C@H](CCCNC(=N)N)NC(=O)[C@H](CCCNC(=N)N)NC(=O)[C@H]([C@@H](C)CC)NC1=O` [894_0335], 7.00 to 9.00; under `CC[C@H](C)[C@@H]1NC(=O)[C@H](Cc2ccc(OC)cc2)NC(=O)[C@H](Cc2ccc(O)cc2)NC(=O)[C@H](CC(N)=O)NC(=O)[C@H](Cc2cn(CC(=O)O)c3ccccc23)NC(=O)[C@H](C(C)C)NC(=O)[C@H](Cc2cccc(Cl)c2)N(C)C(=O)[C@H](C(C)C)NC(=O)[C@H](C)NC(=O)CSC[C@@H](C(=O)NCCOCCOCCOCCOCCC(N)=O)NC(=O)[C@H](Cc2ccc(O)cc2)N(C)C(=O)[C@H](Cc2cccc(C(=O)O)c2)NC(=O)[C@H](CCCNC(=N)N)NC(=O)[C@H](CCCNC(=N)N)NC(=O)[C@H]([C@@H](C)CC)NC1=O` [894_0336], 7.00 to 9.00.

In the case of `CC[C@H](C)[C@@H]1NC(=O)[C@H](Cc2cccnc2)NC(=O)[C@H](Cc2ccc(N)nc2)NC(=O)[C@H](CC(N)=O)NC(=O)[C@H](Cc2cn(CC(=O)O)c3ccccc23)NC(=O)[C@H](C(C)C)NC(=O)[C@H](Cc2cccc(Cl)c2)N(C)C(=O)[C@H](C(C)C)NC(=O)[C@H](C)NC(=O)CSC[C@@H](C(=O)NCCOCCOCCOCCOCCC(N)=O)NC(=O)[C@H](Cc2ccc(O)cc2)N(C)C(=O)[C@H](Cc2ccccc2)NC(=O)[C@H](CCCNC(=N)N)NC(=O)[C@H](CCCNC(=N)N)NC(=O)[C@H]([C@@H](C)CC)NC1=O` [894_0338] ({CH2CO}-AV[NMePhe(3-Cl)]V[Trp(1-CH2COOH)]N[3Pal(6-NH2)][3Pal]IIRRF[NMeY]C[PEG4]-NH2; thioether N-15), the pKd was 7.00 to 9.00. The value for `CC[C@H](C)[C@@H]1NC(=O)[C@H](Cc2cccnc2)NC(=O)[C@H](Cc2ccc(N)nc2)NC(=O)[C@H](CC(N)=O)NC(=O)[C@H](Cc2c[nH]c3ccccc23)NC(=O)[C@H](C(C)C)NC(=O)[C@H](Cc2cccc(Cl)c2)N(C)C(=O)[C@H](C(C)C)NC(=O)[C@H](C)NC(=O)CSC[C@@H](C(=O)NCCOCCOCCOCCOCCC(N)=O)NC(=O)[C@H](Cc2ccc(O)cc2)N(C)C(=O)[C@H](Cc2ccccc2)NC(=O)[C@H](CCCNC(=N)N)NC(=O)[C@H](CCCNC(=N)N)NC(=O)[C@H]([C@@H](C)CC)NC1=O` [894_0357] ({CH2CO}-AV[NMePhe(3-Cl)]VWN[3Pal(6-NH2)][3Pal]IIRRF[NMeY]C[PEG4]-NH2; thioether N-15) was 7.00 to 9.00. The value for `CC[C@H](C)[C@@H]1NC(=O)[C@H](Cc2ccc(OCC(=O)O)cc2)NC(=O)[C@H](Cc2ccc(N)nc2)NC(=O)[C@H](CC(N)=O)NC(=O)[C@H](Cc2c[nH]c3ccccc23)NC(=O)[C@H](C(C)C)NC(=O)[C@H](Cc2cccc(Cl)c2)N(C)C(=O)[C@H](C(C)C)NC(=O)[C@H](C)NC(=O)CSC[C@@H](C(=O)NCCOCCOCCOCCOCCC(N)=O)NC(=O)[C@H](Cc2ccc(O)cc2)N(C)C(=O)[C@H](Cc2ccccc2)NC(=O)[C@H](CCCNC(=N)N)NC(=O)[C@H](CCCNC(=N)N)NC(=O)[C@H]([C@@H](C)CC)NC1=O` [894_0358] ({CH2CO}-AV[NMePhe(3-Cl)]VWN[3Pal(6-NH2)]Y(Carboxymethyl)IIRRF[NMeY]C[PEG4]-NH2; thioether N-15) was 7.00 to 9.00; that for `CC[C@H](C)[C@@H]1NC(=O)[C@H](Cc2ccc(OC)cc2)NC(=O)[C@H](Cc2ccc(N)nc2)NC(=O)[C@H](CC(N)=O)NC(=O)[C@H](Cc2c[nH]c3ccccc23)NC(=O)[C@H](C(C)C)NC(=O)[C@H](Cc2cccc(Cl)c2)N(C)C(=O)[C@H](C(C)C)NC(=O)[C@H](C)NC(=O)CSC[C@@H](C(=O)NCCOCCOCCOCCOCCC(N)=O)NC(=O)[C@H](Cc2ccc(O)cc2)N(C)C(=O)[C@H](Cc2cccc(C(=O)O)c2)NC(=O)[C@H](CCCNC(=N)N)NC(=O)[C@H](CCCNC(=N)N)NC(=O)[C@H]([C@@H](C)CC)NC1=O` [894_0359] ({CH2CO}-AV[NMePhe(3-Cl)]VWN[3Pal(6-NH2)]Y(Me)IIRR[Phe(3-COOH)][NMeY]C[PEG4]-NH2; thioether N-15) was 7.00 to 9.00; that for `CC[C@H](C)[C@@H]1NC(=O)[C@H](Cc2cccnc2)NC(=O)[C@H](Cc2ccc(O)cc2)NC(=O)[C@H](CC(N)=O)NC(=O)[C@H](Cc2c[nH]c3ccccc23)NC(=O)[C@H](C(C)C)NC(=O)[C@H](Cc2cccc(Cl)c2)N(C)C(=O)[C@H](C(C)C)NC(=O)[C@H](C)NC(=O)CSC[C@@H](C(=O)NCCOCCOCCOCCOCCC(N)=O)NC(=O)[C@H](Cc2ccc(O)cc2)N(C)C(=O)[C@H](Cc2ccccc2)NC(=O)[C@H](CCC(=O)NCCOCCOCCOCCOCCOCCOCCOCCOC)NC(=O)[C@H](CCCNC(=N)N)NC(=O)[C@H]([C@@H](C)CC)NC1=O` [894_0360] ({CH2CO}-AV[NMePhe(3-Cl)]VWNY[3Pal]IIRE(NH(CH2CH2O)8Me)F[NMeY]C[PEG4]-NH2; thioether N-15) was 7.00 to 9.00.

As to `CC[C@H](C)[C@@H]1NC(=O)[C@H](Cc2cccnc2)NC(=O)[C@H](Cc2ccc(O)cc2)NC(=O)[C@H](CC(N)=O)NC(=O)[C@H](Cc2c[nH]c3ccccc23)NC(=O)[C@H](C(C)C)NC(=O)[C@H](Cc2cccc(Cl)c2)N(C)C(=O)[C@H](C(C)C)NC(=O)[C@H](C)NC(=O)CSC[C@@H](C(=O)NCCOCCOCCOCCOCCC(N)=O)NC(=O)[C@H](Cc2ccc(O)cc2)N(C)C(=O)[C@H](Cc2cccc(C(=O)O)c2)NC(=O)[C@H](CCCNC(=N)N)NC(=O)[C@H](CCCNC(=N)N)NC(=O)[C@H]([C@@H](C)CC)NC1=O` [894_0361] ({CH2CO}-AV[NMePhe(3-Cl)]VWNY[3Pal]IIRR[Phe(3-COOH)][NMeY]C[PEG4]-NH2; thioether N-15), the pKd is 7.00 to 9.00. Under `CC[C@H](C)[C@@H]1NC(=O)[C@H](Cc2ccc(OCC(=O)O)cc2)NC(=O)[C@H](Cc2ccc(O)cc2)NC(=O)[C@H](CC(N)=O)NC(=O)[C@H](Cc2c[nH]c3ccccc23)NC(=O)[C@H](C(C)C)NC(=O)[C@H](Cc2cccc(Cl)c2)N(C)C(=O)[C@H](C(C)C)NC(=O)[C@H](C)NC(=O)CSC[C@@H](C(=O)NCCOCCOCCOCCOCCC(N)=O)NC(=O)[C@H](Cc2ccc(O)cc2)N(C)C(=O)[C@H](Cc2cccc(C(=O)O)c2)NC(=O)[C@H](CCCNC(=N)N)NC(=O)[C@H](CCCNC(=N)N)NC(=O)[C@H]([C@@H](C)CC)NC1=O` [894_0363] stands 7.00 to 9.00.
